In US20240300945A1, “CLY SERIES COMPOUND, PREPARATION METHOD THEREFOR AND USE THEREOF IN PREPARATION OF DRUGS” (NANJING WELLBEST PHARMACEUTICAL CO., LTD, priority 2021, published 2024):
Marks after values point to notes of the source that are not given here.

Tests used:
skin melanocytes = experiment: Chloasma model of guinea pig: pathomorphological observation of skin melanocytes; type: in vivo; parameters: Average gray level (melanocyte depth): scale not given here; conditions: 0.25% cream once a day, 30 days
From the text: According to the body weight, they were randomly divided into the model control group (applied cream matrix), blank control group (applied cream matrix), CLY-1 treatment group (applied 0.25% CLY-1 cream on the skin), CLY-2 treatment group (0.25% CLY-2 cream on the skin), CLY-3 treatment group (0.25% CLY-3 cream on the skin), CLY-4 treatment group (0.25% CLY-4 cream on the skin), CLY-5 treatment group (0.25% CLY-5 cream on the skin) CLY-8 treatment group (0.25% CLY-8 cream on the skin), CLY-11 treatment group (0.25% CLY-11 cream on the skin), CLY-19 treatment group (0.25% CLY-19 cream on the skin), CLY-36 treatment group (0.25% CLY-36 cream on the skin), CLY-39 treatment group (0.25% CLY-39 cream on the skin), positive treatment group (0.25% arbutin cream on the skin), 6 in each group. In addition to the blank control group, all guinea pigs in the other groups were injected with 20 mg/ml progesterone injection (7.5 mg/kg) into the muscle at the root of the hind leg, once a day, for 30 consecutive days to establish the chloasma model. […] After modeling, the guinea pigs in the model control group, blank control group, each CLY series treatment group, and positive treatment group were treated with corresponding cream on the back for intervention, once a day, for 30 consecutive days.
Took 1 piece of spare skin tissue from each of all guinea pigs, about 2 cm×1 cm, 10% paraformaldehyde fixation, pathological tissue detection, immunohistochemical staining, observation of melanocyte staining and number, and judgment of positive cells according to the literature: none, 0 point<15%, 0.5 points<30%, 1 point; >30%, 2 points. Observed 5 visual fields in each slice, found out the positive target with brown reaction in the cytoplasm of skin epidermis and accessory epithelial cells, and used BX50F4 Beihang pathological image analysis system for quantitative analysis to obtain the average area, the ratio of target area to statistical field area (areal density), the ratio of target number to statistical field area (number density), the average gray level, the average optical density and the integrated optical density of each guinea pig's 5 visual fields of melanin positive target.
SPSS16.0 software was used for statistics. The measurement data were expressed by mean±standard deviation (x±s). The comparison between multiple groups was performed by one-way ANOVA, and the comparison between groups was performed by t-test. P<0.05 was statistically significant.

rabbit ear acne model [1] = experiment: Rabbit ear acne model: macroscopic observation and histological grading; type: in vivo, New Zealand rabbits; conditions: right ear, 10 per group; for number of rabbits with acne histological grading 2+: Grade 2; for number of rabbits with acne histological grading —: Level 0, without acne; for number of rabbits with acne histological grading 1+: Level 1; for number of rabbits with acne histological grading 3+: Level 3
From the text: (1) Preparation method of treatment cream: The excipient matrix components included methyl silicone oil (15%), stearic acid (6%), white vaseline (5%), liquid paraffin (5%), octadecanol (5%), glycerin (20%), alkyl aryl polyglycol ether (1%), fatty alcohol polyoxyethylene ether (1%), […] (1%), ethyl paraben (0.1%), distilled water (about 31-55%), and mixed with appropriate amount of CLY series compounds to form a mixed emulsion. The emulsion matrix used in this embodiment refers to the matrix component after the active ingredient was removed from the emulsion.
(2) Positive therapeutic drug: 0.1% adapalene gel (Trade name: Differin, produced by Laboratoires Galderma, France).
(§1) New Zealand rabbits were, according to weights, randomly divided into the model control group (applied cream matrix), positive treatment group (applied Differin on the skin), CLY-1 external treatment group (0.25% CLY-1 cream on the skin), CLY-2 external treatment group (0.25% CLY-2 cream on the skin), CLY-3 external treatment group (0.25% CLY-3 cream on the skin), CLY-4 external treatment group (0.25% CLY-4 cream on the skin) CLY-8 external treatment group (0.25% CLY-8 cream on the skin), CLY-9 external treatment group (0.25% CLY-9 cream on the skin), CLY-11 external treatment group (0.25% CLY-11 cream on the skin), CLY-19 external treatment group (0.25% CLY-19 cream on the skin), CLY-36 external treatment group (0.25% CLY-36 cream on the skin); CLY-1 intravenous injection group (1 mg/kg·d), CLY-2 intravenous injection group (1 mg/kg·d), CLY-3 intravenous injection group (1 mg/kg·d), CLY-4 intravenous injection group (1 mg/kg·d), CLY-8 intravenous injection group (1 mg/kg·d), CLY-9 intravenous injection group (1 mg/kg·d), CLY-11 intravenous injection group (1 mg/kg·d), CLY-19 intravenous injection group (1 mg/kg·d), and CLY-36 intravenous injection group (1 mg/kg·d), with 10 in each group. Took the inner side of the rabbit's right ear for depilation treatment as the observation area, and the inner side of the left ear of all rabbits as their own negative control, and applied 95% alcohol. The inner side of the right ear of the model group and the treatment group were both coated with 2% coal tar (Alfa Aesar China, which used 95% alcohol to prepare 2% coal tar solution), and evenly applied the sterile cotton swab to the opening of the ear duct on the inner side of the rabbit's ear within the range of about 2 cm×2 cm, once a day, 0.5 mL each time, and wiped the previous application site with warm water for 14 consecutive days to establish the acne micro-pigmentation model. Visually observed the changes of local skin, including ear thickness, hardness, roughness, and whether there was a black angle plug at the hair follicle mouth. 18 hours after the last application, the sample was sacrificed and skin was taken. The skin tissue was taken from the application site by using a 5 mm punch, fixed with 10% formaldehyde, embedded in paraffin, and stained with HE. The histopathological observation and analysis were carried out.
The histological grading criteria of the acne model: 3 grades according to histological grade. […] The tight keratin embolism in the hair follicles causes severe expansion of the hair follicles, obvious hyperplasia of the sebaceous duct epithelium, skin bulges and scars, and some sebaceous glands degenerate “3±”.
(§2) SPSS16 software was used for statistical analysis. The paired t-test was used for the left and right self-contrast, and the t-test was used for the comparison between the groups, P<0.05 was statistically significant.

rabbit ear acne model [2] = experiment: Rabbit ear acne model: epidermal thickness, hair follicle area, sebaceous gland diameter; type: in vivo, New Zealand rabbits; conditions: rabbit right ear
From the text: as §1
The histopathological changes were observed under the microscope, and the thickness of five different epidermises on a slice was measured with the Biomias99 image analysis system, and the average value was calculated; Detected the area of the two hair follicles and the diameter of the four sebaceous glands with the same position and the most complete structure in the four sections, calculated their average values, and then subtracted the data of the left and right external auditory canal of the rabbits in each group to obtain the difference in the thickness of the left and right ear epidermis, the difference in the area of the hair follicles and the difference in the diameter of the sebaceous glands.
as §2

[3] = external use (0.25% CLY cream; positive: Differin)
[4] = intravenous injection 1 mg/kg·d

Row | Compound | Area density of melanocytes (skin melanocytes) | Area of melanocytes (skin melanocytes) [um2] | Average gray level (melanocyte depth) (skin melanocytes) | Average optical density (melanocyte depth) (skin melanocytes) | Integrated optical density (melanocyte depth) (skin melanocytes) | Number density of melanocytes (skin melanocytes) | Number of melanocytes (skin melanocytes) | number of rabbits with acne histological grading 2+ (rabbit ear acne model [1]; [3]) | number of rabbits with acne histological grading 2+ (rabbit ear acne model [1]; [4]) | number of rabbits with acne histological grading — (rabbit ear acne model [1]; [3]) | number of rabbits with acne histological grading — (rabbit ear acne model [1]; [4]) | number of rabbits with acne histological grading 1+ (rabbit ear acne model [1]; [3]) | number of rabbits with acne histological grading 1+ (rabbit ear acne model [1]; [4]) | number of rabbits with acne histological grading 3+ (rabbit ear acne model [1]; [3]) | number of rabbits with acne histological grading 3+ (rabbit ear acne model [1]; [4]) | epidermal thickness (rabbit ear acne model [2]; [3]) [mm] | hair follicle area (rabbit ear acne model [2]; [3]) | sebaceous gland diameter (rabbit ear acne model [2]; [3]) [mm] | epidermal thickness (rabbit ear acne model [2]; [4]) [mm] | hair follicle area (rabbit ear acne model [2]; [4]) | also measured
1 | O=C(c1ccc(-c2ccccc2Cl)cc1)N(c1ncccc1Cl)[C@@H]1CCCNC1 [CLY-36] | 0.007 ± 0.004 | 495.32 ± 79.43 | 0.47 ± 0.07 | 11.53 ± 1.22 | 97.62 ± 9.91 | 2.67 ± 1.38 | 1.98 ± 0.59 | 4 | 2 | 5 | 7 | 1 | 1 | 0 | 0 | 0.2387 ± 0.0186 | 0.2773 ± 0.0945* mm^2 | 0.0805 ± 0.0406 | 0.2282 ± 0.0171 | 0.2241 ± 0.0846* mm^2 | sebaceous gland diameter (rabbit ear acne model [2]; [4]): 0.0536 ± 0.0319 mm
2 | CNC1CCCC(N(C(=O)c2ccc(-n3nnc4cccnc43)cc2)c2ncccc2Cl)C1 (stereo not shown) [CLY-3] | 0.008 ± 0.003 | 436.32 ± 79.12 | 0.52 ± 0.08 | 11.42 ± 1.32 | 95.36 ± 9.86 | 2.82 ± 1.25 | 2.13 ± 0.61 | 2 | 2 | 4 | 6 | 4 | 2 | 0 | 0 | 0.2385 ± 0.0198 | 0.2923 ± 0.0987* mm^2 | 0.0837 ± 0.0412 | 0.2316 ± 0.0196 | 0.2287 ± 0.0883* mm^2 | sebaceous gland diameter (rabbit ear acne model [2]; [4]): 0.0575 ± 0.0354 mm
3 | Nc1ccccc1-c1ccc(C(=O)N(c2ncccc2Cl)[C@@H]2CCCNC2)cc1 [CLY-39] | 0.006 ± 0.003 | 458.06 ± 76.32 | 0.47 ± 0.07 | 11.06 ± 1.17 | 101.36 ± 9.72 | 2.03 ± 1.24 | 1.39 ± 0.32 | 1 | 1 | 6 | 7 | 3 | 2 | 0 | 0 | 0.2312 ± 0.0152 | 0.2315 ± 0.0662* mm^2 | 0.0716 ± 0.0323 | 0.2056 ± 0.0156 | 0.2056 ± 0.0762* mm^2 | sebaceous gland diameter (rabbit ear acne model [2]; [4]): 0.0531 ± 0.0306 mm
4 | COC1CCCC(N(C(=O)c2ccc(-n3nnc4cccnc43)cc2)c2ncccc2Cl)C1 (stereo not shown) [CLY-5] | 0.004 ± 0.001 | 345.31 ± 56.21 | 0.40 ± 0.05 | 10.59 ± 1.13 | 107.06 ± 9.57 | 1.75 ± 1.29 | 1.43 ± 0.32 |  |  |  |  |  |  |  |  |  |  |  |  |  | 
